According to US9856225B2, “Substituted phenazines as antimicrobial agents” (University of Florida Research Foundation, Incorporated, priority 2013, dated 2018):
Several values for one entry are separate records, joined by “and”; a condition that tells them apart may be missing. Equal values may be shown once. Read-outs that look alike come from different tables or passages of the source.

Key:
Type in all cases: cell-based
[1] = test system: Pseudomonas aeruginosa (PAO1); assay: MIC broth microdilution (CLSI), Luria Broth
Procedure: (§1) Antibiotic Susceptibility Tests (MIC Assay Protocol). The minimum inhibitory concentration (MIC) for each compound described herein was determined by the broth microdilution method as recommended by the Clinical and Laboratory Standards Institute (CLSI) (Clinical and Laboratory Standards Institute. 2009. Methods for dilution antimicrobial susceptibility tests for bacteria that grow aerobically; approved standard, eighth edition (M7-A8)). In a 96-well plate, eleven two-fold serial dilutions of each compound were made in a final volume of 100 μL Luria Broth (one column served as a blank; see the MIC assay described herein). Each well was inoculated with 10^5 bacterial cells at the initial time of incubation, prepared from a fresh log phase culture (OD600 of 0.5). […] The concentration range tested for each compound during this study was 0.10 to 100 μM. DMSO served as the vehicle and negative control in each microdilution MIC assay. DMSO was serially diluted at the same concentration as the compounds with a top concentration of 1% v/v. Bacterial strains used: Staphylococcus aureus (ATCC 25923), Staphylococcus epidermidis (ATCC 12228) and Pseudomonas aeruginosa (PAO1). Kanamycin was used as a positive control against Staphylococcus aureus and Staphylococcus epidermidis.

[2] = test system: Staphylococcus aureus (ATCC 25923); assay: MIC broth microdilution (CLSI), Luria Broth; conditions: Staphylococcus aureus
Procedure: as §1

[3] = test system: Staphylococcus epidermidis (ATCC 12228); assay: MIC broth microdilution (CLSI), Luria Broth
Procedure: as §1

[4] = test system: Staphylococcus aureus (ATCC 25923) biofilm; assay: Biofilm inhibition, crystal violet staining; design: MIC/IC50 Biofilm: unit not given here; conditions: S. aureus ATCC 25923; for Phenotype: planktonic growth vs biofilm formation; for IC50: Staphylococcus aureus, ATCC25923, single replicate screen, read-out: Biofilm Inhibition IC50; for MIC/IC50 Biofilm: ratio of MIC to IC50 of biofilm inhibition
Procedure: Biofilm Inhibition Protocol for S. aureus (ATCC 25923). A serial two-fold dilution of 2× bromophenazine small molecule concentration was made in 100 μL tryptic soy broth (TSB) medium with 0.5% glucose were delivered into 0.1% gelatin (Millipore) coated 96-well tissue culture plates. […] To each well, 100 μL of TSB with 0.5% glucose containing 2×10^6 CFU/mL Staphylococcus aureus cells, prepared from fresh culture (OD600 of 0.8), was added. The plates were incubated at 37° C. for 24 hours. The wells were gently rinsed by submerging the entire plates in a tub of cold, running tap water. The wells were then fixed with 200 μL methanol for 15 minutes. After the plates were air dried, the biofilms were stained with 100 μL of 1% crystal violet for 10 minutes. The plates were again rinsed with running water. After drying in air, quantitative assessment of biofilm formation was obtained by extracting the crystal violet associated with the remaining biofilm with 100 μL per well of the following bleaching solution (methanol:glacial acetic acid:water (v/v/v)=4:1:5). This bleaching solution dissolved the bound crystal violet and produced a violet-colored solution in each well. The intensity of coloration was determined by measuring the absorbance at 540 nm.

[5] = test system: Acinetobacter baumannii (ATCC 19606) biofilm; assay: Biofilm inhibition, Mueller-Hinton broth, crystal violet; conditions: Acinetobacter baumannii, ATCC19606; A. baumannii ATCC 19606; 100 μM; read-out: % Biofilm Inhibition at 100 μM
Procedure: (§2) Biofilm Inhibition Protocol for A. baumannii (ATCC 19606): In a 96-well plate, ten two-fold serial dilutions of each compound tested were made from the highest concentration tested (100 μM) in a final volume of 100 μL in Mueller-Hinton broth (one column served as a blank). Each well was inoculated with ˜7×10^6 colony forming units per milliliter (corresponding to an OD600 of 0.01 prepared directly from an overnight culture). A lid was placed on the 96-well plate which was wrapped in suran wrap, placed in a humidifying chamber and incubated under static conditions at 37° C. for 24 hours. Following incubation, the media and planktonic bacteria were then removed from 96-well plates and the wells were then washed with water. The bacterial biofilms within the microtiter wells were stained with 200 μL of an aqueous 0.1% crystal violet solution that was allowed to stand for 10-20 minutes. The crystal violet stain was then removed, the wells were rinsed with water and dried. The crystal violet stain that remained on the inside of the wells (i.e., stained bacterial biofilm) on the inside of the wells was solubilized by the addition of 200 μL ethanol and absorbance was read at OD540 using a spectrophotometer. NOTE: The concentration range tested for each compound was 0.2-100 μM. Single data points for all compounds and DMSO controls were tested in two replicate rows in 96-well plates and corresponding absorbance readings were averaged for the quantification of planktonic growth and biofilm formation. Reported percent biofilm inhibition was determined by the comparison of compound treated wells (the average of the two replicate wells) versus vehicle control wells without compound following background subtraction (i.e., an empty, untreated well) and reported from 2 to 4 independent overnight cultures. DMSO was serially diluted at the same concentration as test compounds with a top concentration of 1% v/v.
(§3) The bromophenazines were also evaluated against the Gram-negative bacterium Acinetobacter baumannii in order to identify biofilm modulating small molecules against this emerging pathogen. Acinetobacter baumannii is notorious for its ability to persist as bacterial biofilms on hospital surfaces, giving rise to many multidrug-resistant nosocomial infections. Clinical isolates of A. baumannii have been identified that are resistant to every class of antibiotic clinically used. The bromophenazines were evaluated against Acinetobacter baumannii ATCC 19606 in biofilm inhibition assays. Bromophenazines were allowed to incubate in 96-well plates with Acinetobacter baumannii (˜7×10^6 CFUmL^−1 by adjusting an overnight culture to an OD600˜0.01) for 24 hours at 37° C. using Mueller-Hinton broth followed by spectrophometer readings of each plate to evaluate planktonic growth (OD600) and biofilm formation (OD540 after crystal violet stain of biofilms inside microtiter wells). […] This biofilm inhibition with activation of planktonic growth activity was dose-dependent with bromophenazine 17a (see FIG. 20).

[6] = test system: Acinetobacter baumannii (ATCC 19606); assay: Planktonic growth (OD600) in biofilm inhibition assay; conditions: for inhibition of growth at 100 µM: Acinetobacter baumannii, ATCC19606, 24 h, A. baumannii ATCC 19606, * = no growth inhibition at 200 μM, read-out: % Growth Inhibition at 100 μM
Procedure: as §2, with “Each” for “Biofilm Inhibition Protocol for A. baumannii (ATCC 19606): In a 96-well plate, ten two-fold serial dilutions of each compound tested were made from the highest concentration tested (100 μM) in a final volume of 100 μL in Mueller-Hinton broth (one column served as a blank). Each”, “NOTE: The concentration range tested for each compound was 0.2-100 μM.” left out
as §3

[7] = Table 1, PAO1, read-out: Pseudomonas aeruginosa MIC
[8] = ATCC25923, Table 1, ATCC 25923, range tested 0.10 to 100 μM, read-out: Staphylococcus aureus MIC
[9] = ATCC25923, Table 1, ATCC 25923, read-out: Staphylococcus aureus MIC
[10] = ATCC25923, Table 2, S. aureus ATCC 25923, Luria Broth, read-out: MIC
[11] = ATCC12228, Table 1, ATCC 12228, read-out: Staphylococcus epidermidis MIC

Compound	MIC [1, 7]	MIC [2, 8]	MIC [2, 9]	MIC [3, 11]	further results
Nc1cccc2nc3cc(Br)ccc3nc12 [Compound 14, 7-Bromophenazin-1-amine]	> 100 µM	> 100 µM	> 27.4 µg/mL	–	–
COc1cc2nc3c(C(=O)O)cccc3nc2c(OC)c1OC [Compound 12, 6,7,8-Trimethoxyphenazine-1-carboxylic acid]	> 100 µM	> 100 µM	> 31.5 µg/mL	> 100 µM and > 31.5 µg/mL	–
Nc1c(Br)cc(Br)c2nc3ccccc3nc12 [Compound 17, 2,4-Dibromophenazin-1-amine]	> 100 µM	> 100 µM	> 35.4 µg/mL	–	–
Oc1c(Br)ccc2nc3ccccc3nc12 [Compound 5, 2-Bromophenazin-1-ol, reference compound]	> 100 µM	6.25 µM	1.72 µg/mL	6.25 µM and 1.72 µg/mL	–
O=C(O)c1cccc2c1nc1ccccc1[n+]2[O-] [Compound 7, 1-Carboxyphenazine 5-oxide]	> 100 µM	> 100 µM	> 24.1 µg/mL	> 100 µM and > 24.1 µg/mL	–
Oc1cccc2nc3ccccc3nc12 [Compound 2, 1-Hydroxyphenazine, reference compound]	–	–	–	–	MIC ([1]; PAO1, read-out: Pseudomonas aeruginosa MIC): > 100 µM; MIC ([2]; ATCC25923, read-out: Staphylococcus aureus MIC): > 100 µM and > 19.7 µg/mL; MIC ([3]; ATCC12228, read-out: Staphylococcus epidermidis MIC): > 100 µM and > 19.7 µg/mL
O=C(O)c1cccc2nc3cc(Br)ccc3nc12 [Compound 9, 7-Bromophenazine-1-carboxylic acid]	> 100 µM	100 µM	30.3 µg/mL	100 µM and 30.3 µg/mL	–
Nc1cccc2nc3ccccc3nc12 [Compound 6, Phenazin-1-amine]	> 100 µM	> 100 µM	> 19.6 µg/mL	> 100 µM and > 19.6 µg/mL	–
Oc1ccc(Br)c2nc3ccccc3nc12 [Compound 20, 4-Bromophenazin-1-ol]	> 100 µM	> 100 µM	> 27.5 µg/mL	–	–
O=C(Oc1c(Br)cc(Br)c2nc3ccccc3nc12)c1cccc(Br)c1 [Compound 25, 2,4-Dibromophenazin-1-yl 3-bromobenzoate]	–	3.13 µM	1.68 µg/mL	3.13 µM and 1.68 µg/mL	MIC [2, 10]: 3.13 µM; Phenotype [4]: antibacterial; IC50 [4]: 930 nM; MIC/IC50 Biofilm [4]: 3.4; inhibition at 100 µM [5]: 49 ± 6%; increase in planktonic growth ([6]; 100 μM, OD600): ~15%; planktonic growth inhibition at 200 μM ([6]; 200 μM): did not inhibit planktonic growth; inhibition of growth at 100 µM ([6]; 100 μM): -18 ± 4%

Further lines, with some results ahead:

MIC [1, 7]	MIC [2, 8]	MIC [2, 9]	MIC [3, 11]	Compound	further results
> 100 µM	> 100 µM	> 43.2 µg/mL	–	Nc1c(Br)cc(Br)c2nc3cc(Br)ccc3nc12 [Compound 16, 2,4,7-Tribromophenazin-1-amine]	–
–	1.56 µM	0.66 µg/mL	1.56 µM and 0.66 µg/mL	CC(C)C(=O)Oc1c(Br)cc(Br)c2nc3ccccc3nc12 [Compound 22, 2,4-Dibromophenazin-1-yl isobutyrate]	MIC [2, 10]: 1.56 µM; Phenotype [4]: antibacterial; IC50 [4]: 990 nM; MIC/IC50 Biofilm [4]: 1.6; inhibition at 100 µM [5]: 26 ± 12%; inhibition of growth at 100 µM ([6]; 100 μM): -13 ± 5%
> 100 µM	> 100 µM	> 25.3 µg/mL	> 100 µM and > 25.3 µg/mL	CCc1ccc2nc3c(C(=O)O)cccc3nc2c1 [Compound 13, 7-Ethylphenazine-1-carboxylic acid]	–
> 100 µM	50 µM	13 µg/mL	50 µM and 13 µg/mL	O=C(O)c1cccc2nc3cccc(Cl)c3nc12 [Compound 10, 9-Chlorophenazine-1-carboxylic acid]	–
> 100 µM	> 100 µM	> 25.5 µg/mL	> 100 µM and > 25.5 µg/mL	COc1ccc2nc3c(C(=O)O)cccc3nc2c1 [Compound 8, 7-Methoxyphenazine-1-carboxylic acid]	–
> 100 µM	> 100 µM	> 28.9 µg/mL	–	COc1ccc(Br)c2nc3ccccc3nc12 [Compound 19, 1-Bromo-4-methoxyphenazine]	–
> 100 µM	> 100 µM	> 30.2 µg/mL	–	NC(=O)c1cccc2nc3cc(Br)ccc3nc12 [Compound 15, 7-Bromophenazine-1-carboxamide]	–
